The values that follow come from PMC11061835, “Elucidating the Mechanism of Metabolism of Cannabichromene by Human Cytochrome P450s” (Journal of Natural Products, 2024).

The test system of data set [1] is BV2 microglial cells, stimulated with lipopolysaccharide (LPS). The data set can be described thus: IL-6 ELISA in LPS-stimulated BV2 cells. In kind it is cell-based, mouse. The settings on record: for effect on IL-6 levels: 0.1, 1.0, 2.5, 5.0 μM, LPS-stimulated. The method, then: (§1) BV2 cells were a gift from Dr. Bob McCusker, University of Illinois. They were cultured and maintained at 37 °C in a humidified atmosphere of 95% air and 5% CO2 in high-glucose Dulbecco’s modified Eagle’s (DMEM) medium (Cat No. 10-013-CV, Corning Life Sciences), supplemented with 5% heat-inactivated fetal bovine serum (FBS), streptomycin (100 μg/mL), and penicillin (100 units/mL). Stocks of all the minor cannabinoids were made in ethanol and stored at −80 °C and diluted as required before cell treatment. A final concentration of ethanol was maintained at 0.1% in the cell culture experiments.
(§2) BV-2 cells were plated at a density of 50 000 cells/well in a 24-well plate at 37 °C under controlled conditions. Cells were pretreated with the minor cannabinoids at various concentrations (0.1, 1.0, 2.5, 5.0 μM) for 4 h and then stimulated with LPS for 24 h. The culture medium was removed and saved for the determination of nitric oxide production through Cayman’s Griess assay. IL-6, TNFα, and Arginase 1 production was also determined utilizing collected medium. For the Greiss assay, in a 96-well plate, 100 μL of culture medium was used, and 50 μL of both Greiss reagent-1 and Greiss reagent-2 was added and incubated for 10 min. The absorbance was measured at 540 nm using a plate reader (SpectraMax iD5). The quantification was done using a calibration curve that was generated using the sodium nitrite standard obtained from Cayman Chemicals.
(§3) BV-2 cells were pretreated with the minor cannabinoids as described previously for 4 h in serum media (reduced to 5% FBS). Cells were stimulated with LPS (25 ng/mL in growth media) and allowed to incubate for 24 h. The culture medium was collected, and the concentrations of IL-6 (Cayman Chemicals), TNFα (ThermoFisher Scientific), and arginase 1 (ThermoFisher Scientific) cytokine expression were determined using specific monoclonal antibodies by ELISA kits as per manufacturer’s instructions.
On the technique in general: ELISA stands for enzyme-linked immunosorbent assay.

The target of data set [2] is CYP2D6 (Homo sapiens, UniProt P10635). The experiment in a line: CBC metabolism by CYP2D6. The class given is in vitro ADME. Also on record: His-tag; made in house; host or cells: E. coli DH-5α with pTGro7 plasmid (CYP). As for the experimental part: (§4) To study the kinetics of CBC metabolism, concentration dependent metabolism of CBC was carried out in the presence of various CYPs using the following procedure. CYP2J2, CYP2C8, CYP2D6, CYP2C9, and CYP3A4 (final concentration 0.5 μM) were initially dissolved in lipid containing POPC:POPS (8:2 v/v) followed by addition of CPR (final concentration 0.6 μM) in 0.1 M potassium phosphate buffer (pH 7.4). CBC (5–80 μM) was added and incubated at 37 °C for 10 min. The reaction was triggered by NADPH and extracted using the exact sample protocol as mentioned in the HLM section.
(§5) Samples were analyzed with the 5500 QTRAP LC/MS/MS system (Sciex, Framingham, MA) in the Metabolomics Lab of Roy J. Carver Biotechnology Center, University of Illinois at Urbana–Champaign. Software Analyst 1.7.1 was used for data acquisition and analysis. The 1200 series HPLC system (Agilent Technologies, Santa Clara, CA) includes a degasser, an autosampler, and a binary pump. […] Multiple reaction monitoring (MRM) was used for quantitation: CBC m/z 315.1 → m/z 135.0; 1-acetoxy-6′,7′-dihydroxy-CBC (JM-I-73) m/z 349.1→ m/z 193.0; 1″-hydroxy-CBC (JM-I-66) m/z 331.1→ m/z 275.1; 6′,7′-epoxy-CBC (JM-I-27) m/z 331.1→ m/z 193.0; 7′,10′-ene-6′-hydroxy-CBC (JM-I-30) m/z 331.1→ m/z 193.0; 8′-hydroxy-CBC (JM-I-32) […]→ m/z 77.0. Internal standard EET-EA-d11 was monitored at m/z 375.2→ m/z 357.1.

For data set [3], the system named is BV2 microglial cells, stimulated with lipopolysaccharide (LPS). The data set can be described thus: Arginase 1 ELISA in LPS-stimulated BV2 cells. The class given is cell-based, mouse. The following applies: 0.1, 1.0, 2.5, 5.0 μM. As for the experimental part: as §1
as §2, with “For the Greiss assay, in a 96-well plate, 100 μL of culture medium was used, and 50 μL of both Greiss reagent-1 and Greiss reagent-2 was added and incubated for 10 min.” left out, “Chemicals. […]” for “Chemicals.”

For data set [4] the test system is unchanged. The data set can be described thus: TNFα ELISA in LPS-stimulated BV2 cells. The following applies: 0.1, 1.0, 2.5, 5.0 μM. In kind it is cell-based, mouse. As for the experimental part: as §1, §2, §3
Data set [5] deals with CYP3A4 (Homo sapiens, UniProt P08684). The data set can be described thus: CBC metabolism by CYP3A4. The class given is in vitro ADME. Set-up: His-tag; made in house; host or cells: E. coli DH-5α with pTGro7 plasmid (CYP). As for the experimental part:
as §4, §5

Data set [6] can be described thus: In vivo metabolism of CBC, mouse blood plasma (LC-MS/MS). Also on record: species or system mice. The settings on record: mice, CBC 20 mg/kg IV or IP, plasma at 0.5 and 2 h. As for the experimental part: CBC was dissolved in ethanol, and an aliquot was then mixed with Tween-80. Ethanol was removed by evaporation. The mixture was then reconstituted with PBS to a 6% final concentration of Tween-80. C 57BL/6J female mice, age 8–10 weeks, were injected with 20 mg/kg CBC or vehicle intravenously (IV, n = 3) via the tail vein or intraperitoneally (IP, n = 3). Blood samples were collected terminally by cardiac puncture into heparin-coated syringes at 0.5 and 2 h after CBC treatment and transferred into tubes. The tubes were then centrifuged, and plasma samples were removed and stored at −80 °C.
200 μL of blood plasma from each sample was taken into a glass tube, and 500 μL of extraction solvent (hexane:ethyl acetate 80:20 v/v) was added. The remaining extraction steps are similar to those used for CBC metabolite extraction from CYPs as mentioned earlier.
Samples were analyzed with the 5500 QTRAP LC/MS/MS system (Sciex, Framingham, MA) in the Metabolomics Lab of Roy J. Carver Biotechnology Center, University of Illinois at Urbana–Champaign. Software Analyst 1.7.1 was used for data acquisition and analysis. The 1200 series HPLC system (Agilent Technologies, Santa Clara, CA) includes a degasser, an autosampler, and a binary pump. The LC separation was performed on a Phenomenex Gemini C6-phenyl column (2 × 100 mm, 3 μm) with mobile phase A (0.1% formic acid in water) and mobile phase B (0.1% formic acid in acetonitrile). The flow rate was 0.2 mL/min. The linear gradient was as follows: 0–2 min, 95% A; 10 min, 50% A; 20–25 min, 0% A; 25.1–31 min, 95% A. The autosampler was set at 10 °C. The injection volume was 5 μL. Mass spectra were acquired under positive electrospray ionization (ESI) with the ion spray voltage of +5000 V. The source temperature was 400 °C. The curtain gas, ion source gas 1, and ion source gas 2 were 325, 65, and 55 psi, respectively. Multiple reaction monitoring (MRM) was used for quantitation: CBC m/z 315.1 → m/z 135.0; 1-acetoxy-6′,7′-dihydroxy-CBC (JM-I-73) m/z 349.1→ m/z 193.0; 1″-hydroxy-CBC (JM-I-66) m/z 331.1→ m/z 275.1; 6′,7′-epoxy-CBC (JM-I-27) m/z 331.1→ m/z 193.0; 7′,10′-ene-6′-hydroxy-CBC (JM-I-30) m/z 331.1→ m/z 193.0; 8′-hydroxy-CBC (JM-I-32) […]→ m/z 77.0. Internal standard EET-EA-d11 was monitored at m/z 375.2→ m/z 357.1.

For data set [7], the system named is BV2 microglial cells, stimulated with lipopolysaccharide (LPS). The experiment in a line: Nitric oxide determination (Griess assay) in LPS-stimulated BV2 cells. The class given is cell-based, mouse. The following applies: for effect on NO release/production: 0.1, 1.0, 2.5, 5.0 μM, vs cells treated with LPS only. As for the experimental part:
as §1
First, cell viability of BV2 cells was assessed after treatment with cannabinoids, at various concentrations (0.1, 1.0, 2.5, 5.0 μM), utilizing Cayman’s MTT assay. […] Once viability was determined, we measured the production of pro-inflammatory markers such as nitric oxide (NO), interleukin 6 (IL-6), tumor necrosis factor alpha (TNFα), and arginase 1 (Arg1) after BV2 cells were treated with minor cannabinoids and then stimulated with lipopolysaccharide (LPS) to evoke an inflammatory response.
as §2

Data set [8] relates to recombinant CYPs: CYP2J2, CYP2C8, CYP2C9, CYP2D6, and CYP3A4. The data set can be described thus: CBC metabolism by recombinant CYPs (all five). The class given is in vitro ADME, human. The following applies: lipid-constituted system with CPR, NADPH. The method, then: as §4, §5
In data set [9] the test system is TRPV2. Set-up: method as in PMID 30697147. The following applies: read-out: agonism toward TRPV2; cited from earlier work.
For data set [10], the system named is TRPV1. Set-up: method as in PMID 30697147. The following applies: read-out: agonism toward TRPV1; cited from earlier work.

CYP3A4, sequence (P08684 whole entry): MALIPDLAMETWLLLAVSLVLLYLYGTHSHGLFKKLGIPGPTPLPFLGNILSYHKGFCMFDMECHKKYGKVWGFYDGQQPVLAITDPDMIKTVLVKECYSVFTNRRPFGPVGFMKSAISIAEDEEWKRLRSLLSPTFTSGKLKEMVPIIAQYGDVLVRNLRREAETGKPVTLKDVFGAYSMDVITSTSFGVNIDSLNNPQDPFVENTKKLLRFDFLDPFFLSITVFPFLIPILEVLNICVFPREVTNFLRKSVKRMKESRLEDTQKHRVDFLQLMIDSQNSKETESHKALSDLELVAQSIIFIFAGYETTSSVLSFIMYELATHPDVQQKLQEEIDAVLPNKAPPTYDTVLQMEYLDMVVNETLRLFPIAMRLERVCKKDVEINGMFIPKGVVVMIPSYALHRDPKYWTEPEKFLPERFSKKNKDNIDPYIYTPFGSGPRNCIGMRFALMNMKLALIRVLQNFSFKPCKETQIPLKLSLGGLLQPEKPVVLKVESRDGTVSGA
CYP3A4, sequence (P16435 whole entry partner): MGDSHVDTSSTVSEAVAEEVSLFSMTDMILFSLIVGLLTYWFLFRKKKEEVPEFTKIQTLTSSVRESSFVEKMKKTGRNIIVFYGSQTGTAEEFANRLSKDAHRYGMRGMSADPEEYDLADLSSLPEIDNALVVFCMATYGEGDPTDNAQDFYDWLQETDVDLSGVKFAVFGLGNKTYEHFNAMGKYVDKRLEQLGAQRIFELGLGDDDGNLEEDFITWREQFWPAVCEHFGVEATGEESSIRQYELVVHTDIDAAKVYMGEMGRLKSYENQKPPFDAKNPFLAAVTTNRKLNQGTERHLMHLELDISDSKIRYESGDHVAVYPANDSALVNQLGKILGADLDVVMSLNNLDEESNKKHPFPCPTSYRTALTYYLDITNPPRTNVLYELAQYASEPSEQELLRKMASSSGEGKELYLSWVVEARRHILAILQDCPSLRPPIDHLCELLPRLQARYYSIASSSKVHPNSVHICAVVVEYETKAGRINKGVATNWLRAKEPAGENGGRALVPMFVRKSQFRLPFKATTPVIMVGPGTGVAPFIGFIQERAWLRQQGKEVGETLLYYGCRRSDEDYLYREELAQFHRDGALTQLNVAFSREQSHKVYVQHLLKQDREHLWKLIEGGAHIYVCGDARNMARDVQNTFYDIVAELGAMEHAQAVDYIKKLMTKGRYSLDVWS
CYP2D6, sequence (P10635 whole entry): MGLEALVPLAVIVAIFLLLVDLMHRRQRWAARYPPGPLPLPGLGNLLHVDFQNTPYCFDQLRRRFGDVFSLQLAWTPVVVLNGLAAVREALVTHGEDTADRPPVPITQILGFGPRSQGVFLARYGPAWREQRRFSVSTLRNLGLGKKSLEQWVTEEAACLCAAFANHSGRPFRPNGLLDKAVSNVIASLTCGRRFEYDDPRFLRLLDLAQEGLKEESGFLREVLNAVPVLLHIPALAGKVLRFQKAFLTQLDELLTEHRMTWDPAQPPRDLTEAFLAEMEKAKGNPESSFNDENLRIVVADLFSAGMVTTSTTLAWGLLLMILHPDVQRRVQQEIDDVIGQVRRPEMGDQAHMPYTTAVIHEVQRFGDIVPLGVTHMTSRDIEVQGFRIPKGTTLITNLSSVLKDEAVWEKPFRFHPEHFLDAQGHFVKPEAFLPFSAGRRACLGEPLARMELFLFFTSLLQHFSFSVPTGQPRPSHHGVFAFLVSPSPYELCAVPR
CYP2D6, sequence (P16435 whole entry partner): as the sequence (P16435 whole entry partner) above

On to `CCCCC(O)c1cc(O)c2c(c1)OC(C)(CCC=C(C)C)C=C2` (centres unmarked) [1″-hydroxy-CBC], for which, in [1], the “effect on IL-6 levels” value is reported as “Concentration dependent reduction”. In data set [2], the “detection as CBC metabolite” value is “not detected”. Also, the “effect on Arg-1 production” value in data set [3] is given as “increases in a concentration dependent manner”. The “effect on TNFα production” value in [4] is recorded as “Concentration dependent reduction”. In data set [5], the “formation as CBC metabolite” value is listed as “not detected”. For the same molecule, in [6], the “detection as product of CBC metabolism in mouse plasma” value (“detection as product” for short) is on record as “not detected”.

On to `CCCCCc1cc(O)c2c(c1)OC(C)(CCC(O)C(C)(C)O)C=C2` (centres unmarked) [6′,7′-dihydroxy-CBC], for which the “reduction of NO level” value in data set [7] (5 μM, LPS-stimulated BV2 cells) is reported as about 50%. Moreover, the “effect on NO release/production” value in data set [7] is reported as “concentration-dependent reduction”. The “reduction of IL-6 level” value in data set [1] (5 μM, LPS-stimulated BV2 cells) is recorded as about 50%. In addition, the “effect on IL-6 levels” value in data set [1] is on record as “Concentration dependent reduction”. Further, the “effect on TNFα production” value in data set [4] is on record as “Concentration dependent reduction”. The “detection as CBC metabolite in the presence of recombinant CYPs” value in data set [8] is “not detected”. In [6], the “detection as product” value is reported as “detected”.

As to `CCCCCc1cc(O)c2c(c1)OC(C)(CCC1OC1(C)C)C=C2` (centres unmarked) [6′,7′-epoxy-CBC], the “effect on Arg-1 production” value in data set [3] is “increases in a concentration dependent manner”. Also, the “formation as CBC metabolite” value in [5] was “exclusively produces”. Besides, the “detection as product” value in [6] is given as “detected”.

`C=C(C)C(O)CCC1(C)C=Cc2c(O)cc(CCCCC)cc2O1` (centres unmarked) [7′,10′-ene-6′-hydroxy-CBC]: the “effect on NO release/production” value in [7] was “concentration-dependent reduction”. Besides, the “effect on IL-6 levels” value in data set [1] is recorded as “Concentration dependent reduction”. Also, in data set [4], the “effect on TNFα production” value is on record as “Concentration dependent reduction”.

On to `C=C(C)[C@@H]1CCC(C)=C[C@H]1c1c(O)cc(CCCCC)cc1O` [CBD, cannabidiol], for which the EC50 in data set [9] and in [10] was about 40 µM each time.

Regarding `CCCCCc1cc(O)c(C/C=C(\C)CCC=C(C)C)c(O)c1` [CBG, cannabigerol], the EC50 in [9] is about 73 µM; in [10], about 33 µM.
